pIC50: −log10 of the molar value.

In the experiment the target is Complement C3 (Homo sapiens, UniProt P01024). The experiment can be described thus: Inhibition of complement C3.
Chain of Complement C3 (P01024 23-667 limits assumed): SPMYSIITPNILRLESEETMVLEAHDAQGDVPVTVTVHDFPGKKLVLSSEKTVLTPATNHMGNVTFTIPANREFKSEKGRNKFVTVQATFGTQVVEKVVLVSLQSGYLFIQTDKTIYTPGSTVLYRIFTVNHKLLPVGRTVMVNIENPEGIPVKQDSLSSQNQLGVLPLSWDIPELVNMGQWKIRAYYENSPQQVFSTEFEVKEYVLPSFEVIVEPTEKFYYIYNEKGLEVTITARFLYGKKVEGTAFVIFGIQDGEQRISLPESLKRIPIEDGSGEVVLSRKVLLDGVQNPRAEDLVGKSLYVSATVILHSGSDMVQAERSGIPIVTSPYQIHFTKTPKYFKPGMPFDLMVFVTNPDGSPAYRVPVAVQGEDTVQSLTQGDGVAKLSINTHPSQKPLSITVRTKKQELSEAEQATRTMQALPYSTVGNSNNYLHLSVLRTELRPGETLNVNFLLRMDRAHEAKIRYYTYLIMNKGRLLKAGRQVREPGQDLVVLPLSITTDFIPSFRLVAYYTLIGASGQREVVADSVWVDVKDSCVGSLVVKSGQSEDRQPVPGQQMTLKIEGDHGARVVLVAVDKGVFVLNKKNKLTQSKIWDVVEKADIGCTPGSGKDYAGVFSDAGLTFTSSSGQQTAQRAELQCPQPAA
Chain of Complement C3 (P01024 672-1663 limits assumed): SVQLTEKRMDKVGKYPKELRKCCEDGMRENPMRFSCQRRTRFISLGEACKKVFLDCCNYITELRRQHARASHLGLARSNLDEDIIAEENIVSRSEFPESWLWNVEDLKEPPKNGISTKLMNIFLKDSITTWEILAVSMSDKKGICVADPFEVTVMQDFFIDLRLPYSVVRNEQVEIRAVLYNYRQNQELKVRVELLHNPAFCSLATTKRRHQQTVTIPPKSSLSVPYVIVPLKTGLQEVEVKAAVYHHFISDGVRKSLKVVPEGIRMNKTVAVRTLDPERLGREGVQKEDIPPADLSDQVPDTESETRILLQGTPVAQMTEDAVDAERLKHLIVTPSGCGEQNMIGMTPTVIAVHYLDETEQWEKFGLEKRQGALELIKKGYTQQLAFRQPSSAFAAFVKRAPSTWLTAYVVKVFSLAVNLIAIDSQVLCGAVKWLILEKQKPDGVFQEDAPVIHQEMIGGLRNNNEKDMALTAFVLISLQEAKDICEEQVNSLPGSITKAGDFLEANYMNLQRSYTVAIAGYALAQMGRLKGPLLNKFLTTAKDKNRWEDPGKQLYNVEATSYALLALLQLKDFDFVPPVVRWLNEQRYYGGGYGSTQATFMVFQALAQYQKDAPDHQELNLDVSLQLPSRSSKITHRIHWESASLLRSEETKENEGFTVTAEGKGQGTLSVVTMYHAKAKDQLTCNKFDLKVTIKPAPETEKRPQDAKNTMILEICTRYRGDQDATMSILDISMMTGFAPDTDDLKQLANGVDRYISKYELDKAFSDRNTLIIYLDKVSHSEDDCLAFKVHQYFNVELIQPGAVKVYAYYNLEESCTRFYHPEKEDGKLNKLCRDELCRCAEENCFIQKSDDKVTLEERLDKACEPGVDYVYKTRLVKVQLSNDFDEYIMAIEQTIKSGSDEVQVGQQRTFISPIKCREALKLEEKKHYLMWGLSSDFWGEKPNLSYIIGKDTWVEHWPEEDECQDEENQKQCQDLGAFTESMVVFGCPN

As a reminder, the pIC50 is −log10 of the IC50, conventionally taken in molar units. The molecule `CC[C@H](C)[C@H](NC(C)=O)C(=O)N[C@H]1CSSC[C@@H](C(=O)N[C@H](C(N)=O)[C@@H](C)O)NC(=O)[C@H](CCCNC(=N)N)NC(=O)[C@H](Cc2c[nH]cn2)NC(=O)[C@H](C)NC(=O)CNC(=O)[C@H](Cc2c[nH]c3ccccc23)NC(=O)[C@H](CC(=O)O)NC(=O)[C@H](CCC(N)=O)NC(=O)[C@H](Cc2ccc3ccccc3c2)NC(=O)[C@H](C(C)C)NC1=O` had a negative logarithm of the IC50 (pIC50) of 6.26.
